What all share (assay type): biochemical
Common to all, as to parameters: from tissue

For one experiment, the target named is T1, MAGL (Mus musculus, UniProt O35678).
T1 sequence (O35678 1-303): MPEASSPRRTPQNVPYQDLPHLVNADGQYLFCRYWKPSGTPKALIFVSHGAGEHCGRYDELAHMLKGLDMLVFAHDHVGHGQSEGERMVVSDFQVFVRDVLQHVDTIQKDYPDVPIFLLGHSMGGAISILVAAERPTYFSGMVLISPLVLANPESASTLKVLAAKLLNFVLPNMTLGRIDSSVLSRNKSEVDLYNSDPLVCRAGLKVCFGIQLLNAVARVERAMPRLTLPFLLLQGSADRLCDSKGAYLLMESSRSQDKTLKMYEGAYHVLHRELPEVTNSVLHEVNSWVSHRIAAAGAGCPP
Put plainly: In vitro competitive ABPP, % inhibition at fixed concentration, MAGL. Here is the method: (§1) In Vitro Competitive Activity-Based Protein Profiling.
(§2) Proteomes (mouse brain membrane fraction or cell lysates) (50 μL, 1.0 mg/ml total protein concentration) were preincubated with varying concentrations of inhibitors at 37° C. After 30 min, FP-Rh (1.0 μL, 50 μM in DMSO) was added and the mixture was incubated for another 30 min at 37° C. Reactions were quenched with SDS loading buffer (50 μL—4×) and run on SDS-PAGE. Following gel imaging, serine hydrolase activity was determined by measuring fluorescent intensity of gel bands corresponding to MAGL, ABHD6 and FAAH using ImageJ 1.43u software.

The target in another experiment is T2, ABHD6 (Mus musculus, UniProt Q8R2Y0).
T2 sequence (Q8R2Y0 1-336): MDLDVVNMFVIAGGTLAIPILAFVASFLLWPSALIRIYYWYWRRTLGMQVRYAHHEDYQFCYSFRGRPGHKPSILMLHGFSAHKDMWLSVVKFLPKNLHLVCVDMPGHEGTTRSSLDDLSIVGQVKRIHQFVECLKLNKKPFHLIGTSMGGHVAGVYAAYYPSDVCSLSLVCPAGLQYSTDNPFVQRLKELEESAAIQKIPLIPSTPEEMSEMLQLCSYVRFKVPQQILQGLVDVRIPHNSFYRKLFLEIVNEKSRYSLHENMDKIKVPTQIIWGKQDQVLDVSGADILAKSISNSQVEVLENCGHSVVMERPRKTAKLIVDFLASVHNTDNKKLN
Put plainly: In vitro competitive ABPP, % inhibition at fixed concentration, ABHD6. Here is the method:
as §1, §2

The target in a further experiment is T3, FAAH (Mus musculus, UniProt O08914).
T3 sequence (O08914 1-579): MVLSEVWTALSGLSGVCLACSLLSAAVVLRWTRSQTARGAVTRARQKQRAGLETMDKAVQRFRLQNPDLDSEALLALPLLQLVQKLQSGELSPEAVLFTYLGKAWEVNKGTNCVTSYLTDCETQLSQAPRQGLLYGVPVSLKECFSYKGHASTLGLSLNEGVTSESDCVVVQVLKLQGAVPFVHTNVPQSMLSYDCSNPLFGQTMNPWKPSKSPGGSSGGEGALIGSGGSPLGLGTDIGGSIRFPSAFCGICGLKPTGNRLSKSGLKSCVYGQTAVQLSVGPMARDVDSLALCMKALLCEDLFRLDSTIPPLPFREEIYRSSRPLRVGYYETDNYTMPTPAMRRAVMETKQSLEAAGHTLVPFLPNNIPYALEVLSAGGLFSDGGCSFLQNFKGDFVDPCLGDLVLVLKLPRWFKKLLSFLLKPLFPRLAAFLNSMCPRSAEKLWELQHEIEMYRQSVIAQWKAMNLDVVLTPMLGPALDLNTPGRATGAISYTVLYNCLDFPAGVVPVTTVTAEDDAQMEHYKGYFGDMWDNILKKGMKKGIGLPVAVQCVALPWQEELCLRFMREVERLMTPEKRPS
Put plainly: In vitro competitive ABPP, % inhibition at fixed concentration, FAAH. Here is the method: as §1, §2

SMILES strings stand for the structures. Where only a bound is given, the exact number is not on record here.

Consider `CC1(C)CN(Cc2ccc(N3CCOCC3)cc2C(F)(F)F)CCN1C(=O)ON1C(=O)CCC1=O` [Example 86, 2,5-Dioxopyrrolidin-1-yl 2,2-dimethyl-4-{[4-(morpholin-4-yl)-2-(trifluoromethyl)phenyl]methyl}piperazine-1-carboxylate], for which the inhibition at 1 µM at MAGL, on ABHD6 and on FAAH was less than 25% in each case.
On to `CC1(C)CN(Cc2ccc(N3CCOCC3)cc2OC(F)(F)F)CCN1C(=O)ON1C(=O)CCC1=O` [Example 87, 2,5-Dioxopyrrolidin-1-yl 2,2-dimethyl-4-{[4-(morpholin-4-yl)-2-(trifluoromethoxy)phenyl]methyl}piperazine-1-carboxylate], for which the inhibition at 1 µM on MAGL, on ABHD6 and at FAAH was less than 25% in each case.
As to `C[C@H]1CN(Cc2ccc(N3CCOCC3)cc2F)CCN1C(=O)ON1C(=O)CCC1=O` [Example 88, 2,5-Dioxopyrrolidin-1-yl (2S)-4-{[2-fluoro-4-(morpholin-4-yl)phenyl]methyl}-2-methylpiperazine-1-carboxylate], the inhibition at 1 µM on MAGL was 25 to 75%; on ABHD6, 25 to 75%; at FAAH it was less than 25%.
For the compound `C[C@H]1CN(Cc2ccc(N3CCOCC3)cc2Cl)CCN1C(=O)ON1C(=O)CCC1=O` [Example 89, 2,5-Dioxopyrrolidin-1-yl (2S)-4-{[2-chloro-4-(morpholin-4-yl)phenyl]methyl}-2-methylpiperazine-1-carboxylate], the inhibition at 1 µM is 25 to 75% on MAGL, 25 to 75% on ABHD6 and less than 25% at FAAH.
Take `C[C@H]1CN(Cc2ccc(N3CCOCC3)cc2OC(F)(F)F)CCN1C(=O)ON1C(=O)CCC1=O` [Example 90, 2,5-Dioxopyrrolidin-1-yl (2S)-2-methyl-4-{[4-(morpholin-4-yl)-2-(trifluoromethoxy)phenyl]methyl}piperazine-1-carboxylate]: the values for the inhibition at 1 µM on MAGL, at ABHD6 and at FAAH were 25 to 75%, 25 to 75% and less than 25%, respectively.
In the case of `C[C@@H]1CN(Cc2ccc(N3CCOCC3)cc2Cl)CCN1C(=O)ON1C(=O)CCC1=O` [Example 96, 2,5-Dioxopyrrolidin-1-yl (2R)-4-{[2-chloro-4-(morpholin-4-yl)phenyl]methyl}-2-methylpiperazine-1-carboxylate], the inhibition at 1 µM on MAGL, on ABHD6 and at FAAH was less than 25% in each case.
In the case of `O=C(ON1C(=O)CCC1=O)N1CCN(Cc2ccc(N3CCCC3)cc2)CC1` [Example 99, 2,5-Dioxopyrrolidin-1-yl 4-(4-(pyrrolidin-1-yl)benzyl)piperazine-1-carboxylate], the inhibition at 1 µM on MAGL was 25 to 75%; on ABHD6 it was 25 to 75%; at FAAH, less than 25%.
As to `O=C(ON1C(=O)CCC1=O)N1CCN(Cc2ccc(N3CCOCC3)cc2)CC1` [Example 100, 2,5-Dioxopyrrolidin-1-yl 4-(4-morpholinobenzyl)piperazine-1-carboxylate], the inhibition at 1 µM on MAGL, at ABHD6 and at FAAH was less than 25% each time.
For the compound `O=C(ON1C(=O)CCC1=O)N1CCN(Cc2ccc(N3CCOCC3)cc2OC(F)(F)F)CC1` [Example 102, 2,5-Dioxopyrrolidin-1-yl 4-{[4-(morpholin-4-yl)-2-(trifluoromethoxy)phenyl]methyl}piperazine-1-carboxylate], the values for the inhibition at 1 µM on MAGL, at ABHD6 and at FAAH were greater than 75%, 25 to 75% and less than 25%, respectively.
For `C[C@@H]1CN(Cc2ccc(N3CCOCC3)cc2OC(F)(F)F)CCN1C(=O)ON1C(=O)CCC1=O` [Example 103, 2,5-Dioxopyrrolidin-1-yl (2R)-2-methyl-4-{[4-(morpholin-4-yl)-2-(trifluoromethoxy)phenyl]methyl}piperazine-1-carboxylate], the inhibition at 1 µM on MAGL, at ABHD6 and at FAAH was less than 25% throughout.
Take `CS(=O)(=O)N1CCN(c2cc(Cl)ccc2CN2CCN(C(=O)ON3C(=O)CCC3=O)CC2)CC1` [Example 110, 2,5-Dioxopyrrolidin-1-yl 4-{[4-chloro-2-(4-methanesulfonylpiperazin-1-yl)phenyl]methyl}piperazine-1-carboxylate]: the inhibition at 1 µM at MAGL is 25 to 75%; at ABHD6, 25 to 75%; at FAAH, less than 25%.
As for `O=C(ON1C(=O)CCC1=O)N1CCN(Cc2ccc(Cl)cc2N2CCC3(CCNC3=O)CC2)CC1` [Example 111, 2,5-Dioxopyrrolidin-1-yl 4-[(4-chloro-2-{1-oxo-2,8-diazaspiro[4.51]decan-8-yl}phenyl)methyl]piperazine-1-carboxylate], the inhibition at 1 µM is 25 to 75% on MAGL, 25 to 75% at ABHD6 and less than 25% at FAAH.
With `O=C(ON1C(=O)CCC1=O)N1CCN(Cc2ccc(Cl)cc2N2CCC2)CC1` [Example 112, 2,5-Dioxopyrrolidin-1-yl 4-{[2-(azetidin-1-yl)-4-chlorophenyl]methyl}piperazine-1-carboxylate], the inhibition at 1 µM on MAGL is greater than 75%; on ABHD6 it was 25 to 75%; at FAAH it was less than 25%.
On the same counts, the results for `Cc1cc(-c2ccc(CN3CCN(C(=O)ON4C(=O)CCC4=O)CC3)c(C)c2)cc(C)n1` [Example 113, 2,5-Dioxopyrrolidin-1-yl 4-{[4-(2,6-dimethylpyridin-4-yl)-2-methylphenyl]methyl}piperazine-1-carboxylate] are 25 to 75%, 25 to 75% and less than 25%.
The matching figures for `O=C(ON1C(=O)CCC1=O)N1CCN(Cc2ccc(Cl)cc2N2CCC(C(=O)N3CCCC3)CC2)CC1` [Example 116, 2,5-Dioxopyrrolidin-1-yl 4-({4-chloro-2-[4-(pyrrolidine-1-carbonyl)piperidin-1-yl]phenyl}methyl)piperazine-1-carboxylate]: 25 to 75%, less than 25% and less than 25%.
As to `O=C(ON1C(=O)CCC1=O)N1CCN(Cc2ccc(Cl)cc2N2CCn3ncnc3C2)CC1` [Example 117, 2,5-Dioxopyrrolidin-1-yl 4-[(4-chloro-2-{5H,6H,7H,8H-[1,2,4]triazolo[1,5-a]pyrazin-7-yl}phenyl)methyl]piperazine-1-carboxylate], the inhibition at 1 µM at MAGL was 25 to 75%; at ABHD6, less than 25%; on FAAH it was less than 25%.
Take `O=C(ON1C(=O)CCC1=O)N1CCN(Cc2cc(C(F)(F)F)ccc2N2CCOCC2)CC1` [Example 119, 2,5-Dioxopyrrolidin-1-yl 4-{[2-(morpholin-4-yl)-5-(trifluoromethyl)phenyl]methyl}piperazine-1-carboxylate]: the inhibition at 1 µM at MAGL is 25 to 75%; on ABHD6 it was 25 to 75%; at FAAH, less than 25%.
For the compound `O=C(ON1C(=O)CCC1=O)N1CCN(Cc2cc(C(F)(F)F)ccc2N2CCCC2)CC1` [Example 120, 2,5-Dioxopyrrolidin-1-yl 4-{[2-(pyrrolidin-1-yl)-5-(trifluoromethyl)phenyl]methyl}piperazine-1-carboxylate], the inhibition at 1 µM was greater than 75% at MAGL, 25 to 75% at ABHD6 and less than 25% on FAAH.

The values are drawn from patent publication US9567302B2, “Carbamate compounds and of making and using same” (Abide Therapeutics, Inc., priority 2012, dated 2017).
